Data published in article PMC12057341, “In vitro pharmacokinetic/pharmacodynamic modeling of the effect of mucin on polymyxin B activity against Acinetobacter baumannii” (Antimicrobial Agents and Chemotherapy, 2025).
Entries after “also recorded” stand apart in the source; their conditions may differ. Where a SMILES comes first, the peptide text is derived from it. Bridges are numbered along the chain shown (N, C = ends). [ ]: non-standard residue; d: D form. The star is where a group is joined. X1 = CC[C@H](C)CCCCC(=O)*; Dab = NCC[C@H](N)C(=O)O

Legend:
Format in all cases: cell-based
[1] = test system: Acinetobacter baumannii AB121-D0; assay: Time-kill experiments and PK/PD modeling, AB121-D0; details: for Unbound PMB concentrations at which regrowth was observed in TK: CAMHB + 1% mucin
Method: (§1) Bacteria were cultured overnight under shaking (150–170 rpm) in CAMHB at 35°C. The bacterial suspension was then diluted to 1/50 and incubated at 35°C under shaking until an optical density of 0.3 (corresponding to 1.10^8 CFU/ml of bacteria in the exponential growth phase) was achieved. This bacterial suspension was then diluted in order to obtain a starting inoculum at 1.10^6 CFU/mL. TK experiments were performed in CAMHB in the absence and presence of 1% mucin. PMB concentrations varied from 0.5 mg/L to 128 mg/L for AB121-D0 and 8 mg/L to 512 mg/L for AB122-D12. Drug-free CAMHB was used as bacterial growth control for each strain. Tubes were incubated at 35°C under shaking (150–170 rpm), and aliquots were sampled over time at T0h, T1h, T3h, T6h, T10h, T24h, and T30h. Samples were serially diluted in NaCl 0.9% and plated onto Mueller-Hinton agar supplemented with 1% activated charcoal (to prevent PMB carry-over effect). Bacteria were counted after overnight incubation at 35°C. The limit of quantification was fixed based on CLSI guidelines ([38]) and was equal to 400 CFU/ml (i.e. 2.6 log10 CFU/mL). Experiments were conducted in triplicate for both strains.
(§2) Bacterial counts obtained from TK experiments without mucin were first modeled using NONMEM 7.4 (ICON plc, Dublin, Ireland) with the Laplacian algorithm and the M3 method for handling observations below the limit of quantification ([39]). PMB was assumed to be stable over the course of the experiment as previously shown ([40]). A previously described model with hetero-resistance ([41]), that is, two bacterial subpopulations, one susceptible to PMB (S) and one resistant (R), was used to describe the time course of bacterial counts for the two A. baumannii strains (Fig. 1). Different functions were tested to characterize the PMB killing effect (see supplemental material for model building).
Then, TK data in the presence of mucin were included in the data set and PMB total concentrations were corrected for mucin binding using equation 1, with unbound PMB concentrations driving the antibacterial effect. Random variability between TK experiments (one experiment corresponding to a replicate of a tested concentration) was included to account for the uncertainty associated with each parameter of equation 1 and thus with the estimation of unbound PMB concentration in TK, such as:
An impact of mucin on PD model parameters was tested on top of PMB binding to mucin with the following equation:
(4) Pj=θj,1×(1−Mucin)+θj,2×Mucin,
where Pj was the jth parameter of the PD model, Mucin was a categorical variable either equal to 0 or 1 depending on its absence or presence in TK experiments respectively, θj,1 and θj,2 corresponded to the Pj value in the absence and in the presence of mucin, respectively. […]

[2] = test system: Acinetobacter baumannii AB122-D12; assay: Time-kill experiments and PK/PD modeling, AB122-D12
Method: as §1, §2
Then, TK data in the presence of mucin were included in the data set and PMB total concentrations were corrected for mucin binding using equation 1, with unbound PMB concentrations driving the antibacterial effect. […]

[3] = test system: Acinetobacter baumannii AB122-D12; assay: MIC at the end (T30h) of TK experiments after regrowth, AB122-D12
Method: (§3) PMB MICs of both A. baumannii strains were determined in commercial CAMHB (BioMérieux, Marcy-l’Etoile, France) according to the European Committee on Antimicrobial Susceptibility Testing and Clinical and Laboratory Standards Institute (CLSI) recommendations ([33], [34]). PMB MICs of the two A. baumannii isolates were also determined at least in duplicate in CAMHB supplemented with 1% of mucin.
(§4) Samples were centrifuged (8 minutes at 8,000 rpm); then, the supernates were removed, and the pellets were stored at −80°C in CAMHB-glycerol 20%. A minimum bacterial density of ~10^5 CFU/mL in samples collected at the end of TK experiments was required for MIC susceptibility testing and sequencing.
(§5) Prior to MIC testing, the isolates were streaked onto a drug-free Mueller-Hinton agar plate and incubated for 24 h.

[4] = test system: Acinetobacter baumannii AB122-D12; assay: PMB MIC in CAMHB with or without 1% mucin, AB122-D12
Method: (§6) Two clinical MDR strains of A. baumannii, isolated from a patient before (AB121-D0) and 12 days after treatment with colistin (AB122-D12), were used during this study ([32]). AB122-D12 carries a 10 amino acid insertion into the pmrB gene, known to confer PMB resistance.
as §3

[5] = test system: Acinetobacter baumannii AB121-D0; assay: MIC at the end (T30h) of TK experiments after regrowth, AB121-D0
Method: as §3, §4, §5

[6] = test system: Acinetobacter baumannii AB121-D0; assay: PMB MIC in CAMHB with or without 1% mucin, AB121-D0
Method: as §6, §3

[7] = with and without mucin together
[8] = CAMHB + 1% mucin, unbound MIC = MIC x fu
[9] = MIC with 1% mucin corrected by fu

SMILES: CC[C@H](C)CCCCC(=O)N[C@@H](CCN)C(=O)N[C@H](C(=O)N[C@@H](CCN)C(=O)N[C@H]1CCNC(=O)[C@H]([C@@H](C)O)NC(=O)[C@H](CCN)NC(=O)[C@H](CCN)NC(=O)[C@H](CC(C)C)NC(=O)[C@@H](Cc2ccccc2)NC(=O)[C@H](CCN)NC1=O)[C@@H](C)O [PMB, polymyxin B] (X1-[Dab]T[Dab][Dab][Dab][dF]L[Dab][Dab]T; lactam 4-C)
- Fold increase of EmaxR in the presence of mucin ([1]; 1% mucin vs no mucin): 1.4 fold
- Unbound PMB concentrations at which regrowth was observed in TK ([1]; one-third of replicates): ≤ 13 mg/L
- Unbound PMB concentrations at which regrowth was observed in TK ([1]; two-thirds of replicates): ≤ 0.5 mg/L
- PMB concentrations up to which regrowth was observed in TK after initial CFU decay ([1]; CAMHB without mucin, 30 h): up to 8 mg/L
- Fold increase of EC50 in the presence of mucin ([2]; 1% mucin vs no mucin, both S and R subpopulations): increased approx. fivefold; also recorded: fivefold increase
- Unbound PMB concentration able to prevent bacterial regrowth in TK ([2]; CAMHB + 1% mucin, no concentration in the range tested prevented regrowth): > 304 mg/L
- PMB concentrations up to which regrowth was observed in TK after initial CFU decay ([2]; CAMHB without mucin, 30 h): ≤ 128 mg/L
- MIC fold-change vs control of respective replicate ([3]; TK in CAMHB + 1% mucin, PMB 48 mg/L, replicate 2, lpxA Ser224Pro): 4
- MIC fold-change vs control of respective replicate ([3]; TK in CAMHB + 1% mucin, PMB 135 mg/L, replicate 3, ISAba13 insertion in the promoter of lpxC): 8
- MIC fold-change vs control of respective replicate ([3]; TK in CAMHB + 1% mucin, PMB 135 mg/L, replicate 4, ISAba13 insertion in the promoter of lpxC): 4
- MIC fold-change vs control of respective replicate ([3]; TK in CAMHB, PMB 16 mg/L, replicate 1, lpxA Arg258Leu): 4
- MIC fold-change vs control of respective replicate ([3]; TK in CAMHB, PMB 128 mg/L, replicate 1, lpxA Trp206Arg Thr210Ala): 2
- MIC fold-change vs control of respective replicate ([3]; TK in CAMHB, PMB 128 mg/L, replicate 2, lpxA Trp206Arg Thr210Ala): 0.25
- Regrowth samples at T30h with ≥fourfold increase in MIC compared with control ([3]; TK in the absence of mucin, 2/18 samples): 11%
- Regrowth samples at T30h with ≥fourfold increase in MIC compared with control ([3]; TK in the presence of mucin, 5/26 samples): 19%
- Cases of regrowth associated with an increase in the MIC at T30h [3, 7]: 16%
- MICu (corrected by fu) [4, 8]: 628 mg/L
- MICu ratio in the presence and absence of mucin [4, 9]: 20
- Fold increase of MIC in the presence of 1% mucin compared to CAMHB ([4]; total concentrations): 32 fold
- MIC fold-change vs control of respective replicate ([5]; TK in CAMHB + 1% mucin, PMB 0.25 mg/L, replicate 3, pmrB Phe164Ile): >64
- MIC fold-change vs control of respective replicate ([5]; TK in CAMHB + 1% mucin, PMB 0.5 mg/L, replicate 2, pmrB Pro170Leu): >32
- MIC fold-change vs control of respective replicate ([5]; TK in CAMHB + 1% mucin, PMB 0.5 mg/L, replicate 3, pmrB Arg231Leu): >64
- MIC fold-change vs control of respective replicate ([5]; TK in CAMHB + 1% mucin, PMB 13 mg/L, replicate 4, pmrB Ala227Val): >64
- MIC fold-change vs control of respective replicate ([5]; TK in CAMHB, PMB 0.5 mg/L, replicate 2, pmrB Arg263His): >32
- MIC fold-change vs control of respective replicate ([5]; TK in CAMHB, PMB 0.5 mg/L, replicate 3, ISAba1 insertion in the promoter of pmrC_3): 32
- MIC fold-change vs control of respective replicate ([5]; TK in CAMHB, PMB 0.5 mg/L, replicate 4, pmrB Asn353Tyr): >64
- MIC fold-change vs control of respective replicate ([5]; TK in CAMHB, PMB 1 mg/L, replicate 4, pmrB 16.25dup): 32
- MIC fold-change vs control of respective replicate ([5]; TK in CAMHB, PMB 4 mg/L, replicate 2, pmrB Pro170Leu): >32
- Regrowth samples at T30h with MIC increased (≥32-fold) compared to control ([5]; TK in the absence of mucin, 6 out of 10 samples): 60%
- Regrowth samples at T30h with MIC increased (same order of magnitude, ≥32-fold) compared to control ([5]; TK in the presence of mucin, 5 out of 16 samples): 31%
- Cases of regrowth associated with an increase in the MIC at T30h [5, 7]: 42%
- MICu (corrected by fu) [6, 8]: 13 mg/L
- MICu ratio in the presence and absence of mucin [6, 9]: 13
- Fold increase of MIC in the presence of 1% mucin compared to CAMHB ([6]; total concentrations): 64 fold
